Key:
[1] = test system: nicotinic receptors, NIC-evoked [^3H]DA release from rat striatal slices; experiment: Inhibition of nicotine-evoked [^3H]dopamine release from superfused rat striatal slices; format: cell-based; conditions: 1 h, 100 nM analog superfused 60 minutes prior to NIC (10 μM)
Protocol: Rat striatal slices (500 μm thickness, 6-8 mg wet weight) were incubated for 30 minutes in Krebs buffer (118 mM NaCl, 4.7 mM KCl, 1.2 mM MgCl2, 1.0 mM NaH2PO4, 1.3 mM CaCl2, 11.1 mM glucose, 25 mM NaHCO3, 0.11 mM L-ascorbic acid, and 0.004 mM disodium EDTA at pH 7.4, and saturated with 95% O2/5% CO2) in a metabolic shaker at 34° C. Slices were rinsed with 15 mL of fresh buffer, and were incubated for an additional 30 minutes in fresh buffer containing 0.1 μM [^3H]dopamine (DA; 6 slices/3 mL). Subsequently, slices were rinsed with 15 mL of fresh buffer and transferred to a glass superfusion chamber. Slices were superfused (1.0 mL/min) for 60 minutes with Krebs buffer containing nomifensine (10 μM) and pargyline (10 μM), and maintained at 34° C., pH 7.4, with continual aeration (95% O2/5% CO2). Two five minute samples (5 mL each) were collected to determine basal outflow of [^3H]DA. The test compounds of Formula (I) were added to the superfusion buffer after the collection of the second sample, and were maintained in the buffer until 12 consecutive five minute samples were collected. Subsequently, S-(−)-nicotine (10 μM) was added to the buffer, and an additional 12 consecutive five minute samples were collected. At the end of the experiment, each slice was solubilized, and the [^3H]content of the tissue determined.
Radioactivity in the superfusate and tissue samples was determined by liquid scintillation spectroscopy. Fractional release of tritium collected in each sample was divided by the total tritium present in the tissue at the time of sample collection, and the fractional release of tritium collected was expressed as a percentage of total tritium. Basal [^3H]outflow was calculated from the average of the tritium collected in the two five minute samples just before addition of a test compound of Formula (I). The sum of the increase in collected tritium resulting from either exposure to a test compound of Formula (I), or exposure to S(−) nicotine in the absence and presence of a test compound of Formula (I) equaled total [^3H]overflow. [^3H]Overflow was calculated by subtracting the [^3H]outflow during an equivalent period of pre-stimulation from the values in samples collected during and after drug exposure. Inasmuch as the radio-labeled compounds were not separated and identified, the tritium collected in superfusate is referred to as either [^3H]outflow or [^3H]overflow, rather than as [^3H]DA. [^3H]Overflow primarily represents [^3H]DA in the presence of nomifensine and pargyline in the superfusion buffer.
The quaternary analogs of Formula (I) were also evaluated for their ability to inhibit NIC-evoked [^3H]DA release. In these experiments, the striatal slices were superfused for 60 minutes with 100 nM concentration of the quaternary analogs prior to NIC (10 μM) exposure. Antagonist activity was evaluated by comparing the NIC-evoked [^3H]overflow in the absence and presence of the analogs. The relative order of potency of the quaternary analogs of Formula (I) for inhibition of NIC-evoked [^3H]DA release from rat striatal slices is illustrated in Table 1.
^aData are % inhibition at 100 nM concentration of the mono quaternary analogs for at least 1-3 independent experiments; with the exception of when a Ki value in μM is provided, in which case a full concentration effect was evaluated. Specific binding in the [^3H]NIC binding assay is calculated as the difference between the total binding of 3 nM [^3H]NIC and nonspecific binding in the presence of 10 μM cold nicotine. Specific binding for the [^3H]MLA binding assay is calculated as the difference between the total binding of 2.5 nM [^3H]MLA to the receptors alone and its nonspecific binding in the presence of 1 μM cold MLA. Analog-induced inhibition of nicotine-evoked [^3H]DA release is calculated as a percent of that in the absence of the mono quaternary ammonium analog. ND indicates not determined.

[2] = molecular target: T1, Rat Striatal Nicotinic Receptors ([^3H]NIC binding) (Rattus norvegicus, UniProt P09483+P12390); experiment: Inhibition of [^3H]nicotine binding to brain membranes; conditions: 3 nM [^3H]NIC; for inhibition at 0.1 µM: % inhibition at 100 nM analog, nonspecific 10 μM nicotine; for Ki: full concentration effect
T1 construct: Whole brain, excluding cortex and cerebellum, was homogenized; from tissue; host or cells: rat brain membranes (whole brain excluding cortex and cerebellum)
T1 sequence (P09483 31-630): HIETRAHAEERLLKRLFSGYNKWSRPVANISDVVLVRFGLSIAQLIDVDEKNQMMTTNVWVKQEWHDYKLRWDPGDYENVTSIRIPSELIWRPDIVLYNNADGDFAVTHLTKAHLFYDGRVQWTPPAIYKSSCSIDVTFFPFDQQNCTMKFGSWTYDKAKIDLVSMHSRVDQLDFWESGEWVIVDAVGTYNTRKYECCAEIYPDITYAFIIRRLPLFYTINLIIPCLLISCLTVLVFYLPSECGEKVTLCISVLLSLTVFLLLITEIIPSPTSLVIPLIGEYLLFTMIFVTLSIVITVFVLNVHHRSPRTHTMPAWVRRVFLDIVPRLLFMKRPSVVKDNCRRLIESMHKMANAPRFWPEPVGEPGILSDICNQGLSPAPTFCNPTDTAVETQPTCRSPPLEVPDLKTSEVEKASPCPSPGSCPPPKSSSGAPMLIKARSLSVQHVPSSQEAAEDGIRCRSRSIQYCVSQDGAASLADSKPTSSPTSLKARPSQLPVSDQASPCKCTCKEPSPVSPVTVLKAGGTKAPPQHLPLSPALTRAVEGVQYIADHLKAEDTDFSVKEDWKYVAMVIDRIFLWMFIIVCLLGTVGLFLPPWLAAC
T1 sequence (P12390 25-500): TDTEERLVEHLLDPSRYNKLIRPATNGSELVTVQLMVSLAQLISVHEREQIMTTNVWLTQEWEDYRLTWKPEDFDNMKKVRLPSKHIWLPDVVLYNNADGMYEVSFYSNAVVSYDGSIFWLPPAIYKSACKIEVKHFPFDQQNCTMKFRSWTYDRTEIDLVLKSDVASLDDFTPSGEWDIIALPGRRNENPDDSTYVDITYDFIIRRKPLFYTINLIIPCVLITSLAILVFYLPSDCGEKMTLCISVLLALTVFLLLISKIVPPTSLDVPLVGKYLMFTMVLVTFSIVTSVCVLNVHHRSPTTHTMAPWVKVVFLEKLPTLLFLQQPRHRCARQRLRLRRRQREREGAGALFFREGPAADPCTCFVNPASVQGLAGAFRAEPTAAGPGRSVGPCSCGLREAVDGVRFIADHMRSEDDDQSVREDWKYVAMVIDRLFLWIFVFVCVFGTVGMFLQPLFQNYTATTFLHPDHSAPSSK
Protocol: (§1) Test compounds of Formula (I), representing the mono quaternary nicotine analogs of the present invention, were evaluated to determine the effect of a test compound on nicotine-binding and methyllycaconitine-binding mediated by nicotine acetylcholine receptors.
(§2) Homogenate was centrifuged (25,000 g, 15 min, 4° C.). Pellets were resuspended in 20 volumes of buffer and incubated at 37° C., for 10 min, cooled to 4° C. and centrifuged (25,000 g, 15 min, 4° C.). Pellets were resuspended and centrifuged using the same conditions. […] Upon use, final pellets were resuspended in ˜20 volumes of assay buffer. Samples (250 μl) contained 100-140 μg of membrane protein, 3 nM [^3H]nicotine or 3 nM [^3H]methyllycaconitine (MLA), and test compounds of Formula (I) (100 nM) in assay buffer containing 50 mM Tris. A control sample absent test compounds of Formula (I) was also prepared. In the [^3H]nicotine-binding assay and [^3H]MLA-binding assay, nonspecific-binding was determined in the presence of 10 μM nicotine and 10 μM MLA, respectively. Incubations proceeded for 60 min at a room temperature using 96-well plates, and were terminated by harvesting on Unifilter-96 GF/B filter plates presoaked in 0.5% polyethylenimine, using a Packard FilterMate harvester. After washing 5 times with 350 μl ice-cold assay buffer, the filter plates were dried (60 min, 4° C.), bottom-sealed, and filled with Packard's MicroScint 20 cocktail (40 μl/well). After 60 min, filter plates were top-sealed, and levels of radioactivity were determined using a Packard TopCount. Protein concentrations were determined using the Bradford dye-binding procedure using bovine serum albumin as a standard protein.
Specific binding in the [^3H]NIC binding assay is calculated as the difference between the total binding of 3 nM [^3H]NIC and nonspecific binding in the presence of 10 μM cold nicotine. […] Analog-induced inhibition of nicotine-evoked [^3H]DA release is calculated as a percent of that in the absence of the mono quaternary ammonium analog. ND indicates not determined.

[3] = molecular target: T2, Rat Striatal Nicotinic Receptors ([^3H]MLA binding) (Rattus norvegicus, UniProt Q05941); experiment: Inhibition of [^3H]methyllycaconitine (MLA) binding to brain membranes; conditions: for inhibition at 0.1 µM: % inhibition at 100 nM analog, 2.5 nM [^3H]MLA, nonspecific 1 μM MLA (footnote); for Ki: full concentration effect, 2.5 nM [^3H]MLA (footnote)
T2 construct: Whole brain, excluding cortex and cerebellum, was homogenized; from tissue; host or cells: rat brain membranes (whole brain excluding cortex and cerebellum)
T2 sequence (Q05941 23-502): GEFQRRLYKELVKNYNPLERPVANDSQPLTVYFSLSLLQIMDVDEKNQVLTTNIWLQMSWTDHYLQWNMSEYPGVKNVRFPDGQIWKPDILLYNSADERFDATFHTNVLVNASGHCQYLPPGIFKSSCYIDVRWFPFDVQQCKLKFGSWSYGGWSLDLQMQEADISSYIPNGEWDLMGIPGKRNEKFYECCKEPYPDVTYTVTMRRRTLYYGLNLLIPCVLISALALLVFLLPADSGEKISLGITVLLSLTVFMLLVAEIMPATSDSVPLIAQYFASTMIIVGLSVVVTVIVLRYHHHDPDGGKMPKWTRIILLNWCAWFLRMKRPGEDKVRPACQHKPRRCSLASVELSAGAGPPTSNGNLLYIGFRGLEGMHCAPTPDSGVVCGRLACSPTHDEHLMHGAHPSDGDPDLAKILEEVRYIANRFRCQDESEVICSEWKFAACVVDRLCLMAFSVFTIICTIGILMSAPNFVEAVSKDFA
Protocol: as §1
as §2, with “Samples (250 μl) contained 100-140 μg of membrane protein, 3 nM [^3H]nicotine or 3 nM [^3H]methyllycaconitine (MLA), and test compounds of Formula (I) (100 nM) in assay buffer containing 50 mM Tris.” left out, “In the [^3H]nicotine-binding assay and [^3H]MLA-binding assay, nonspecific-binding was determined in the presence of 10 μM nicotine and 10 μM MLA, respectively.” left out, “protein. […]” for “protein.”

Structure (SMILES)	inhibition at 0.1 µM [1]	inhibition at 0.1 µM [2]	inhibition at 0.1 µM [3]	Ki [2]	Ki [3]
CN1CCC[C@H]1c1ccc[n+](CCCCCc2ccc(-c3ccccc3)cc2)c1	51%	–	–	–	–
Cc1cc[n+](CCCCCc2ccc(-c3ccccc3)cc2)c(C)c1	39%	–	–	–	–
c1ccc(-c2ccc(CCCCC[n+]3cccc4ccccc43)cc2)cc1	61%	–	–	–	–
CCCCc1ccc(CCCC[n+]2ccc(C)cc2)cc1	58%	5%	0%	–	–
Cc1cc[n+](CCCCCc2ccc(-c3ccccc3)cc2)cc1	18%	–	–	–	–
Cc1cc(C)c[n+](CCCC#Cc2ccc(-c3ccccc3)cc2)c1	51%	8%	3%	–	–
CCCCc1ccc(C#CCC[n+]2ccc3c(c2)CCCC3)cc1	70%	–	–	> 100 µM	3.7 µM
CN1CCC[C@H]1c1ccc[n+](CCCC#Cc2ccc(-c3ccccc3)cc2)c1	47%	20%	6%	–	–
Cc1cc[n+](CCCC#Cc2ccc(-c3ccccc3)cc2)cc1	40%	0%	3%	–	–
Cc1cc[n+](CCCCCCCCc2ccccc2)c(C)c1	14%	0%	9%	–	–
CCCCc1ccc(C#CCC[n+]2ccc(C)cc2)cc1	11%	6%	3%	–	–
CCCCc1ccc(CCCC[n+]2ccc3c(c2)CCCC3)cc1	–	–	–	> 100 µM	14 µM
CCCCc1ccc[n+](CCCC#Cc2ccc(-c3ccccc3)cc2)c1	50%	0%	9%	–	–
Cc1cc(C)c[n+](CCCCCc2ccc(-c3ccccc3)cc2)c1	51%	–	–	–	–
CCCCc1ccc(CCCC[n+]2ccccc2C)cc1	–	0%	0%	–	–
C(#Cc1ccc(-c2ccccc2)cc1)CCC[n+]1ccc2ccccc2c1	–	0%	6%	–	–
Cc1ccc[n+](CCCCCCCCc2ccccc2)c1	0%	–	–	> 100 µM	> 100 µM
C(#Cc1ccc(-c2ccccc2)cc1)CCC[n+]1cccc(-c2ccccc2)c1	–	8%	6%	–	–
C(#Cc1ccc(-c2ccccc2)cc1)CCC[n+]1cccc2ccccc21	23%	1%	7%	–	–
CCCCc1ccc(CCCC[n+]2ccc(C)c(C)c2)cc1	–	0%	0%	–	–

Structure (SMILES)	inhibition at 0.1 µM [1]	inhibition at 0.1 µM [2]	inhibition at 0.1 µM [3]	Ki [2]	Ki [3]
CCCCc1ccc(C#CCC[n+]2cc(C)cc(C)c2)cc1	–	0%	0%	–	–
C(#Cc1ccc(-c2ccccc2)cc1)CCC[n+]1ccccc1	34%	2%	6%	–	–
Cc1cc[n+](CCCCCc2ccc(-c3ccccc3)cc2)cc1C	38%	–	–	–	–
Cc1cc[n+](CCCC#Cc2ccc(-c3ccccc3)cc2)c(C)c1	5%	2%	6%	–	–
CCCCc1ccc(CCCC[n+]2cccc(C)c2)cc1	33%	4%	2%	–	–
Cc1cccc[n+]1CCCCCCCCc1ccccc1	62%	0%	0%	–	–
CCCCc1ccc(CCCC[n+]2ccc(C)cc2C)cc1	19%	6%	0%	–	–
Cc1ccc[n+](CCCCCCCCCCCCCc2cccnc2)c1	31%	0%	2%	–	–
CCCCc1ccc(C#CCC[n+]2ccc(C)c(C)c2)cc1	–	0%	10%	–	–
CCCCc1ccc(CCCC[n+]2cc(C)cc(C)c2)cc1	–	0%	0%	–	–
CCCCc1ccc(CCCC[n+]2cccc(CCCO)c2)cc1	64%	0%	0%	–	–
Cc1cccc[n+]1CCCC#Cc1ccc(-c2ccccc2)cc1	45%	2%	7%	–	–
c1cncc(CCCCCCCCCCCCC[n+]2ccc3c(c2)CCCC3)c1	0%	–	–	> 100 µM	7.2 µM
Cc1cc[n+](CCCCCCCCCCCCCc2cccnc2)cc1C	20%	3%	0%	–	–
CCCCc1ccc[n+](CCCCCc2ccc(-c3ccccc3)cc2)c1	43%	–	–	–	–
CCCCc1ccc(C#CCC[n+]2cccc(CC)c2)cc1	–	0%	0%	–	–
Cc1cccc[n+]1CCCCCc1ccc(-c2ccccc2)cc1	45%	–	–	–	–
c1ccc(-c2ccc(CCCCC[n+]3ccccc3)cc2)cc1	30%	–	–	–	–
c1ccc(-c2ccc(CCCCC[n+]3ccc4ccccc4c3)cc2)cc1	–	0%	6%	–	–
CCCCc1ccc(C#CCC[n+]2cccc(CCCO)c2)cc1	–	0%	0%	–	–
